# Columns and labels:
# [1] = target: 5-HT2B receptor (Homo sapiens, UniProt P41595); settings: cited literature: Br. J. Pharmacol. 128(1):13-20, 1999; J. Pharmacol. Exp. Ther. 347(3):645-59, 2013; cited from earlier work
# [2] = test system: muscle-damaged model animal (CTX administered to tibialis anterior muscle); test: Muscle regeneration in cardiotoxin (CTX) muscle-damaged model animal; area of regenerated single muscle fibers with central nuclei in tibialis anterior muscle; assay type: in vivo, C57BL/6 male mice; settings: 10 μL intramuscular into tibialis anterior muscle once a day from day before CTX to 6 day after CTX; for increase in the mean muscle fiber area of regenerated muscle as compared with the Vehicle administration group: 7 days after CTX, P<0.0001; for histogram of the regenerated single-muscle fiber area vs Vehicle administration group: muscle collected 7 days after CTX
# Experimental: Seven-week old C57BL/6 male mice (CLEA Japan, Inc.) were purchased, and used for experiment at the age of 8 weeks.
# A model animal to which muscle damage had been caused by administration of snake venom cardiotoxin (CTX) was used. The muscle-damaged model animal has been widely used in studies on the regeneration from muscle damage.
# Under the anesthesia with isoflurane, 50 μL of 10 μM CTX was administered to the tibialis anterior muscle of the right hindlimb of the mouse. After 7 days of the administration of CTX, the tibialis anterior muscle was collected by dissection, and supplied to the preparation of a muscle tissue section.
# Immediately after the collection of the tibialis anterior muscle, the tibialis anterior muscle was immersed in isopentane cooled with liquid nitrogen and was rapidly frozen. The frozen muscle tissue was cut into slices each having a thickness of 10 μm by using a cryostat (Leica Biosystems), and the slice was attached onto an antistripping coated slide glass (Matsunami Glass Ind., Ltd).
# A muscle tissue section was sufficiently air dried for 30 minutes under room temperature. After that, the muscle tissue section was fixed by immersing it in acetone cooled to −30° C. and treating at −30° C. for 20 minutes. The fixed section was air dried once and washed with PBS. Then the section was blocked by dropwisely adding a blocking reagent (Blocking One, NACALAI TESQUE, INC.) to the section and being subjected to the blocking treatment for 1 hour. Next, a primary antibody (Anti-Laminin-2 (α-2 Chain) antibody, Rat monoclonal (Sigma-Aldrich)) obtained by being diluted 500 times with the blocking reagent was added dropwise, and the reaction was conducted at overnight at 4° C. Since laminin to which a primary antibody binds is a protein expressed in all muscle cells, the primary antibody was used in this experiment in order to measure the area of individual muscle cells in a section. The muscle tissue section after the reaction with the primary antibody was washed with PBS, and then was reacted for 1 hour with a secondary antibody (CF 488A Goat Anti-Rat IgG (H+L) (Biotium)) obtained by being diluted 500 times with the blocking reagent. The secondary antibody that is an anti-rat antibody conjugated with a fluorescent dye binds to the primary antibody, and stains the laminin. The muscle tissue section after the reaction with the secondary antibody was washed with PBS, and sealed by using “[…] Hard⋅Set with DAPI” (Vector), and then the fluorescence observation was performed with an inverted microscope FSX100 (OLYMPUS). The “[…] Hard⋅Set with DAPI” was used for staining the central nucleus of muscle cells.
# The muscle regeneration was evaluated on the basis of the image data taken from the fluorescence observation. In this experiment, muscle cells each having a central nucleus (single muscle fibers having central nuclei) were used as an indicator for regenerated muscle. After the image data was taken into image analysis software ImageJ (NIH), a muscle cell having a central nucleus was extracted. The cross-sectional area of the extracted individual cells was measured on the basis of the cell membrane stained with laminin. For the area measurement, “Analyze Particles” that is an add-in analysis program on ImageJ was used. The measurement results were shown as a distribution chart (histogram) of the area and number of regenerated single-muscle fibers, and as an average value of the cross-sectional areas of all the regenerated single muscle fibers (mean muscle fiber area).
# [3] = 5 mM in PBS with 5% dimethyl sulfoxide
# Sequence of 5-HT2B receptor (P41595 whole entry): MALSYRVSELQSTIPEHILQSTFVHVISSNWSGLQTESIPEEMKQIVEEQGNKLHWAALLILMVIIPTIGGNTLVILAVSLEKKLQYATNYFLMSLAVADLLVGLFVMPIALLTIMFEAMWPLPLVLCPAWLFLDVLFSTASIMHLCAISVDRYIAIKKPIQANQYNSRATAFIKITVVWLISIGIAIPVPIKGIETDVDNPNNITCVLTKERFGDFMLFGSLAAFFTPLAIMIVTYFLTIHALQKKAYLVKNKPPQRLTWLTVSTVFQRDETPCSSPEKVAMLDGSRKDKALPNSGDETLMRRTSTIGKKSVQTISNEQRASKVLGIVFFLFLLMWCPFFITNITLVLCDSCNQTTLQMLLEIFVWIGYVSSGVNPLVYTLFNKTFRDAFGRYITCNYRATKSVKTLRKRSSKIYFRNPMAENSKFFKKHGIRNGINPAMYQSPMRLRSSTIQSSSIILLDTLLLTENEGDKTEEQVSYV
SMILES,5-HT2B receptor agonist activity (known from literature) [1],"increase in the mean muscle fiber area of regenerated muscle as compared with the Vehicle administration group [2, 3] [%]","histogram of the regenerated single-muscle fiber area vs Vehicle administration group [2, 3]",increase in the mean muscle fiber area of regenerated muscle as compared with the Vehicle administration group ([2]; 10 mM in PBS) [%],histogram of the regenerated single-muscle fiber area vs Vehicle administration group ([2]; 10 mM in PBS)
"CC(N)Cc1c[nH]c2ccc(OCc3cccs3)cc12 (stereo not drawn) [BW723C86, 1-(5-(thiophen-2-ylmethoxy)-1H-indol-3-yl)propan-2-amine]",selective 5-HT2B receptor agonist,9.5,shifted to the right side,–,–
"Cn1c2c(c3ccccc31)CCNCC2 [PNU 22394, 6-methyl-1,2,3,4,5,6-hexahydroazepino[4,5-b]indole]",5-HT2B receptor agonist,–,–,8.5,shifted to the right side
"CC(N)Cc1c[nH]c2ccc(O)cc12 (stereo not drawn) [α-methyl-5-HT, 3-(2-aminopropyl)-1H-indol-5-ol]",5-HT2B receptor agonist,23,shifted to the right side,–,–

# Reference: patent US20220249440A1, “MUSCLE RE[…]” (SATO PHARMACEUTICAL CO., LTD., priority 2019, published 2022)
